Data reported in publication PMC10175918 (Communications Biology, 2023).
Read-outs that look alike come from different tables or passages of the source.

Tests used:
Experiment in all cases: TGFα-shedding assay-based GPCR screening with chimeric Gα subunit proteins
Type in all cases: cell-based
348 GPCRs [1] = target: T1, 348 GPCRs (Homo sapiens, UniProt P08913)
T1 construct: expressed in transfected cells; host or cells: HEK293A
T1 sequence (P08913 1-465): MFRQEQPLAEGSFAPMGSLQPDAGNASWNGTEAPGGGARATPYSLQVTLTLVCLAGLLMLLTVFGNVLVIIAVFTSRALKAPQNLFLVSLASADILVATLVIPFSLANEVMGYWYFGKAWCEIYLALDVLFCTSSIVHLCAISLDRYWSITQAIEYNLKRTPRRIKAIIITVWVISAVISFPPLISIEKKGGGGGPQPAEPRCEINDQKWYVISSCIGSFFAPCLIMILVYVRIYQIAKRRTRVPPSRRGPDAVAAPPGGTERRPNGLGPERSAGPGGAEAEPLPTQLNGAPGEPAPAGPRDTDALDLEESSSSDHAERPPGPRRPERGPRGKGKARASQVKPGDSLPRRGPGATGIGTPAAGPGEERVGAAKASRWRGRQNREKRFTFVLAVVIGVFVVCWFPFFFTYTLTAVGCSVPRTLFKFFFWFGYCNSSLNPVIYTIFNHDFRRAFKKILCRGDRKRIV

348 GPCRs [2] = target: T2, 348 GPCRs (Homo sapiens, UniProt Q86VZ1)
T2 construct: expressed in transfected cells; host or cells: HEK293A
T2 sequence (Q86VZ1 whole entry): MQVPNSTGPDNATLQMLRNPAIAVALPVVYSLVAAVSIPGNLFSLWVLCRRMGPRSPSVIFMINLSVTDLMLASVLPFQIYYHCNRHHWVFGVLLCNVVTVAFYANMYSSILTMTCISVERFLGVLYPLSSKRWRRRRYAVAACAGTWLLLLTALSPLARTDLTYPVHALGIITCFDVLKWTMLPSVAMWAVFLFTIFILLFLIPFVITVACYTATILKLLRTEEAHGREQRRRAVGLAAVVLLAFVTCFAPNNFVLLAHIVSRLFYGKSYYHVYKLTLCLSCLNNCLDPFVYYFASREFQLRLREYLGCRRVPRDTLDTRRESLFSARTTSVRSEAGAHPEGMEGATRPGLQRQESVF

348 GPCRs [3] = target: T3, 348 GPCRs (Homo sapiens, UniProt P32247); conditions: 10µM, Favipiravir 100μM
T3 construct: expressed in transfected cells; host or cells: HEK293A
T3 sequence (P32247 1-399): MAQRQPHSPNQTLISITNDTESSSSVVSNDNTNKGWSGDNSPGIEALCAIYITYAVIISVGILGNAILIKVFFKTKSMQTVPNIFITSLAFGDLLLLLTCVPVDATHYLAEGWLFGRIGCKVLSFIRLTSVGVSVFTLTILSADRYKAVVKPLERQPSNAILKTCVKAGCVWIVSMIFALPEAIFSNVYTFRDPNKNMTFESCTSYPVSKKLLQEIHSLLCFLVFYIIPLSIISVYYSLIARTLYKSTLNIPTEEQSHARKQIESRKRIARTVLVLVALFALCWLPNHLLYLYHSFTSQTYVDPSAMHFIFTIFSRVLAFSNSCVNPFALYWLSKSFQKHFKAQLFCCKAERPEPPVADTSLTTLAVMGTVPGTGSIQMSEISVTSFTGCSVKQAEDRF

348 GPCRs [4] = target: 348 GPCRs (Homo sapiens, UniProt P41595); conditions: 10µM, Favipiravir 100μM
Chain of 348 GPCRs (Homo sapiens, UniProt P41595) (P41595 whole entry): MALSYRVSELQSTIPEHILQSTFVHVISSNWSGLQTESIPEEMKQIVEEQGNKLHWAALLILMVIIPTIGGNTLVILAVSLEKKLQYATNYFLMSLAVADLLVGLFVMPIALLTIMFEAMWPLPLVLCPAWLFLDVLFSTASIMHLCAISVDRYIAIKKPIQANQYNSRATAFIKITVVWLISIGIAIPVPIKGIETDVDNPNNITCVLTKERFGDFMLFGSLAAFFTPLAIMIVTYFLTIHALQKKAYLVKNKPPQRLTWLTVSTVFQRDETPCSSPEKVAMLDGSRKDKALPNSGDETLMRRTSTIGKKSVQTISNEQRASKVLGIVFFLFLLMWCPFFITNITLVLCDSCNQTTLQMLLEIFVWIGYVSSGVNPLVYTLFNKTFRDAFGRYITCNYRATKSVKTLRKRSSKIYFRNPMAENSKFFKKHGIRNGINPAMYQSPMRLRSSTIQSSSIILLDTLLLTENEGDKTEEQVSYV

348 GPCRs [5] = target: T4, 348 GPCRs (Homo sapiens, UniProt Q9BZJ8)
T4 construct: expressed in transfected cells; host or cells: HEK293A
T4 sequence (Q9BZJ8 whole entry): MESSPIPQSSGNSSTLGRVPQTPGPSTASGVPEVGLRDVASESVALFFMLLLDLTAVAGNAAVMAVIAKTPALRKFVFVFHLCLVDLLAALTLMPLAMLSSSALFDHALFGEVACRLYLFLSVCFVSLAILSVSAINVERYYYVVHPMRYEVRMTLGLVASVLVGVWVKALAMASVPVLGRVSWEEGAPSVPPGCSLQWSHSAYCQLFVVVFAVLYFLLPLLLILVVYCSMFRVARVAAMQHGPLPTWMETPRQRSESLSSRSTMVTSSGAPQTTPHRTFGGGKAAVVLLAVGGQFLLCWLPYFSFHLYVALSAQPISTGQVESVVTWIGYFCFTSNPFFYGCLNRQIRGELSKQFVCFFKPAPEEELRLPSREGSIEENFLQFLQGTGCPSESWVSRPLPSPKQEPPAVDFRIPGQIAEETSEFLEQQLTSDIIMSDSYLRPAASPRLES

348 GPCRs [6] = target: T5, 348 GPCRs (Homo sapiens, UniProt P46663); conditions: 10µM, Favipiravir 100μM
T5 construct: expressed in transfected cells; host or cells: HEK293A
T5 sequence (P46663 1-353): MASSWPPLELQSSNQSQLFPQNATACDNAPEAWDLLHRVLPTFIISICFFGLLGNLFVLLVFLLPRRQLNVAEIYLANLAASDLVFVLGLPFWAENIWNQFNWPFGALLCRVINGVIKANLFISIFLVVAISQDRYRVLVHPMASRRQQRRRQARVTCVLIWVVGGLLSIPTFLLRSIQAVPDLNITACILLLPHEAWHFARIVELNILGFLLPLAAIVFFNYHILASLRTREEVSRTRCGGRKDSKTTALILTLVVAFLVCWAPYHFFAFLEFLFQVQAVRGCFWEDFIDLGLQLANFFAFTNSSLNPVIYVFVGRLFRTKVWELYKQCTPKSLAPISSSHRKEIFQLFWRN

348 GPCRs [7] = target: T6, 348 GPCRs (Homo sapiens, UniProt P47804); conditions: 10µM, Favipiravir 100μM
T6 construct: expressed in transfected cells; host or cells: HEK293A
T6 sequence (P47804 1-291): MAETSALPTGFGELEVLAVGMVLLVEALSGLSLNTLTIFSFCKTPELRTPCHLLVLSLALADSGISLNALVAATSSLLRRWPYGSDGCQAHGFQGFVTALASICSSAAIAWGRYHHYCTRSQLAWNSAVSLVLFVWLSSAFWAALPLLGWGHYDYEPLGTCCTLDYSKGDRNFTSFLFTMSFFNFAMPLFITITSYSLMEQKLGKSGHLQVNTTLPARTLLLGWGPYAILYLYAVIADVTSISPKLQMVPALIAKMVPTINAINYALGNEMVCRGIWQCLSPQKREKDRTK

348 GPCRs [8] = target: T7, 348 GPCRs (Homo sapiens, UniProt Q6U736); conditions: 10µM, Favipiravir 100μM
T7 construct: expressed in transfected cells; host or cells: HEK293A
T7 sequence (Q6U736 whole entry): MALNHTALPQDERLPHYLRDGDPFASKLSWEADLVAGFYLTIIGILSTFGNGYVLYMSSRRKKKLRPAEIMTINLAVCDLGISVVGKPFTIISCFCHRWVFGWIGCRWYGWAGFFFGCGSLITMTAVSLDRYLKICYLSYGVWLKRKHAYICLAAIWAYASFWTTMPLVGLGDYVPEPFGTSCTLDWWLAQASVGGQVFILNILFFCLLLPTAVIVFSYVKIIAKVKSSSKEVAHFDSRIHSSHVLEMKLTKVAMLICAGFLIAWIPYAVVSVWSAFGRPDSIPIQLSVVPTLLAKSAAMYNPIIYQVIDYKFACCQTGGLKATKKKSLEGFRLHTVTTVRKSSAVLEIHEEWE

348 GPCRs [9] = target: T8, 348 GPCRs (Homo sapiens, UniProt Q86Y34); conditions: 10µM, Favipiravir 100μM
T8 construct: expressed in transfected cells; host or cells: HEK293A
T8 sequence (Q86Y34 21-549): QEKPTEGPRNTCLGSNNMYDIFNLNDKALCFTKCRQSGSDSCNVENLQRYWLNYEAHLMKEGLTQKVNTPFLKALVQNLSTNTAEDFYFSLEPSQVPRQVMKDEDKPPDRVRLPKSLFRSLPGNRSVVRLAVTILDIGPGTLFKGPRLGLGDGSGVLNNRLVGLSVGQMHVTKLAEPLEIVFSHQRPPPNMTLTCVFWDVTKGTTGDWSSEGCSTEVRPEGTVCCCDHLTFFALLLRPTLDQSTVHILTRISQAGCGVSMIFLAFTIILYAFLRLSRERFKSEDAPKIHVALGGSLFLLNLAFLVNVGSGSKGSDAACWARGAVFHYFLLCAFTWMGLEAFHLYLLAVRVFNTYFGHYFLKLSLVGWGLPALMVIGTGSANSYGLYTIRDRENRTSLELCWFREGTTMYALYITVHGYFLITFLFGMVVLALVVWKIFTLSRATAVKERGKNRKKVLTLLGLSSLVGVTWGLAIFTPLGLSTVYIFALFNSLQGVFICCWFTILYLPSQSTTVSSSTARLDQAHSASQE

348 GPCRs [10] = target: 348 GPCRs (Homo sapiens, UniProt P21728); conditions: 10µM, Favipiravir 100μM
Chain of 348 GPCRs (Homo sapiens, UniProt P21728) (P21728 whole entry): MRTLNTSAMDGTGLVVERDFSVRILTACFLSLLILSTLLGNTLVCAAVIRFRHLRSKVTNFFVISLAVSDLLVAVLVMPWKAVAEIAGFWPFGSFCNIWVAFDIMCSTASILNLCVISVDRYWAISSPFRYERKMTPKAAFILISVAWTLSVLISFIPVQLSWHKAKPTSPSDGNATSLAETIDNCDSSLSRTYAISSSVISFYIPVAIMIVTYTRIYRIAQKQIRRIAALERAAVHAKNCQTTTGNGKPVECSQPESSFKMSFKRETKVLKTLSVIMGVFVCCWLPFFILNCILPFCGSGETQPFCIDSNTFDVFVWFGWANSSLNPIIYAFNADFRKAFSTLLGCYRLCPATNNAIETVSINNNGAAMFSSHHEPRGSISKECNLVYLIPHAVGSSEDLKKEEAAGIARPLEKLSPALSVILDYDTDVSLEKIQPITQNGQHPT

[11] = GPCR α2A (adrenoceptor alpha 2A), read-out: % GPCR activation compared to TPA
[12] = GPCR P2Y8 (purinergic receptor P2Y, G-protein coupled, 8), read-out: % GPCR activation compared to TPA
[13] = BB3 (Bombesin receptor, subtype 3), read-out: % GPCR activation compared to TPA
[14] = HTR2B (5-hydroxytryptamine (serotonin) receptor 2B), read-out: % GPCR activation compared to TPA
[15] = GPCR GPR61 (G protein-coupled receptor 61), read-out: % GPCR activation compared to TPA
[16] = B1 (bradykinin receptor B1), read-out: % GPCR activation compared to TPA
[17] = RGR (Retinal G protein coupled receptor), read-out: % GPCR activation compared to TPA
[18] = OPN5 (opsin 5), read-out: % GPCR activation compared to TPA
[19] = GPR97 (Adhesion G Protein-Coupled Receptor G3 (ADGRG3)), read-out: % GPCR activation compared to TPA
[20] = D1 (dopamine receptor D1), read-out: % GPCR activation compared to TPA
[21] = read-out: % GPCR activation compared to TPA, GPCR α2A (adrenoceptor alpha 2A)
[22] = read-out: % GPCR activation compared to TPA, GPCR P2Y8 (purinergic receptor P2Y, G-protein coupled, 8)
[23] = read-out: % GPCR activation compared to TPA, BB3 (Bombesin receptor, subtype 3)
[24] = read-out: % GPCR activation compared to TPA, HTR2B (5-hydroxytryptamine (serotonin) receptor 2B)
[25] = read-out: % GPCR activation compared to TPA, GPCR GPR61 (G protein-coupled receptor 61)
[26] = read-out: % GPCR activation compared to TPA, B1 (bradykinin receptor B1)
[27] = read-out: % GPCR activation compared to TPA, RGR (Retinal G protein coupled receptor)
[28] = read-out: % GPCR activation compared to TPA, OPN5 (opsin 5)
[29] = read-out: % GPCR activation compared to TPA, GPR97 (Adhesion G Protein-Coupled Receptor G3 (ADGRG3))
[30] = read-out: % GPCR activation compared to TPA, D1 (dopamine receptor D1)

| Structure (SMILES) | activation at 10 µM (348 GPCRs [1]; [11]) | activation at 10 µM (348 GPCRs [2]; [12]) | activation at 10 µM (348 GPCRs [3]; [13]) | activation at 100 µM (348 GPCRs [4]; [14]) | activation at 10 µM (348 GPCRs [5]; [15]) | activation at 10 µM (348 GPCRs [6]; [16]) | activation at 100 µM (348 GPCRs [7]; [17]) | activation at 100 µM (348 GPCRs [8]; [18]) | activation at 100 µM (348 GPCRs [9]; [19]) | activation at 10 µM (348 GPCRs [10]; [20]) | activation at 10 µM (348 GPCRs [1]; [21]) | activation at 10 µM (348 GPCRs [2]; [22]) | activation at 10 µM (348 GPCRs [3]; [23]) | activation at 100 µM (348 GPCRs [4]; [24]) | activation at 10 µM (348 GPCRs [5]; [25]) | activation at 10 µM (348 GPCRs [6]; [26]) | activation at 100 µM (348 GPCRs [7]; [27]) | activation at 100 µM (348 GPCRs [8]; [28]) | activation at 100 µM (348 GPCRs [9]; [29]) | activation at 10 µM (348 GPCRs [10]; [30]) | also measured |
| --- | --- | --- | --- | --- | --- | --- | --- | --- | --- | --- | --- | --- | --- | --- | --- | --- | --- | --- | --- | --- | --- |
| N#C[C@@]1(c2ccc3c(N)ncnn23)O[C@H](CO)[C@@H](O)[C@H]1O [GS441524] | -0.949% | 1.71% | 1.72% | 0.0796% | -3.94% | 1.31% | -2.11% | -1.77% | -0.758% | 0.291% | – | – | – | – | – | – | – | – | – | – | – |
| CCC(CC)COC(=O)[C@H](C)N[P@](=O)(OC[C@H]1O[C@@](C#N)(c2ccc3c(N)ncnn23)[C@H](O)[C@@H]1O)Oc1ccccc1 [remdesivir] | – | – | – | – | – | – | – | – | – | – | 8.13% | 6.38% | 2.03% | -4.14% | -3.23% | 8.43% | -0.554% | -2.25% | -1.74% | 4.77% | – |
| CC(C)OC(=O)[C@H](C)N[P@](=O)(OC[C@H]1O[C@@H](n2ccc(=O)[nH]c2=O)[C@](C)(F)[C@@H]1O)Oc1ccccc1 [sofosbuvir] | – | – | – | – | – | – | – | – | – | – | -2.48% | -3.86% | 7.68% | -0.398% | -0.929% | -5% | -3.06% | -0.631% | -1.21% | -0.068% | – |
| NC(=O)c1nc(F)cnc1O [favipiravir, 6-fluoro-3-hydroxy-2-pyrazinecarboxamide] | – | – | -0.00483% | 0.187% | – | 5.17% | -1.43% | -1.8% | -1.79% | -0.0785% | – | – | – | – | – | – | – | – | – | – | activation at 100 µM (348 GPCRs [1]; GPCR α2A (adrenoceptor alpha 2A), 100μM, read-out: % GPCR activation compared to TPA): 1.73%; activation at 100 µM (348 GPCRs [2]; GPCR P2Y8 (purinergic receptor P2Y, G-protein coupled, 8), 100μM, read-out: % GPCR activation compared to TPA): 1.7%; activation at 100 µM (348 GPCRs [5]; GPCR GPR61 (G protein-coupled receptor 61), 100μM, read-out: % GPCR activation compared to TPA): -3.47% |
| CC(C)C(=O)OC[C@H]1O[C@@H](n2ccc(NO)nc2=O)[C@H](O)[C@@H]1O [molnupiravir] | -0.00545% | -9.1% | 0.338% | -1.16% | -0.396% | -3.36% | -1.3% | -2.56% | -1.08% | 1.11% | – | – | – | – | – | – | – | – | – | – | – |
